Assay results as given in PMC12446476 (Nature Communications, 2025).
≈ marks a conversion by molar mass, not a printed value. Read-outs that look alike come from different tables or passages of the source.

Test system: N. gonorrhoeae
Test: MIC determination, Etest
Format: cell-based, Neisseria gonorrhoeae
Details: Neisseria gonorrhoeae, comparator antibiotics, read-out: Minimum inhibitory concentration
Excerpt: The 2024 WHO N. gonorrhoeae reference strains were used for quality control. Only whole MIC doubling dilutions are reported. Clinical breakpoints or the epidemiological cutoff (ECOFF, to indicate azithromycin resistance) from EUCAST (v14.0, https://www.eucast.org/clinical_breakpoints) were used to classify isolates as antimicrobial susceptible or resistant. […] Two times the standard inoculum defined by CLSI was used to establish consistent growth in untreated control samples for some strains. In vitro time-kill assays were performed according to CLSI guidelines[65] using Columbia Broth (BD Difco) supplemented with 1% IsoVitaleX Enrichment (BD). Viable bacterial counts were generated by plating 10-fold serially diluted samples on GC agar plates containing 1% IsoVitaleX Enrichment (BD).

CO/N=C(\C(=O)N[C@@H]1C(=O)N2C(C(=O)O)=C(CSc3nc(=O)c(=O)[nH]n3C)CS[C@H]12)c1csc(N)n1 [Ceftriaxone, reference compound]
MIC (clinical N. gonorrhoeae isolate 1, Sweden 2023): 4 ng/mL (≈ 7.21 nM) | MIC (clinical N. gonorrhoeae isolate 2, Sweden 2023): 32 ng/mL (≈ 57.7 nM) | MIC (clinical N. gonorrhoeae isolate 3, Sweden 2023): 4 ng/mL (≈ 7.21 nM) | MIC (clinical N. gonorrhoeae isolate 4, Sweden 2023): 32 ng/mL (≈ 57.7 nM) | MIC (clinical N. gonorrhoeae isolate 5, Sweden 2023): 4 ng/mL (≈ 7.21 nM) | MIC (clinical N. gonorrhoeae isolate 6, Sweden 2023): < 2 ng/mL | MIC (clinical N. gonorrhoeae isolate 7, Sweden 2023): 8 ng/mL (≈ 14.4 nM) | MIC (clinical N. gonorrhoeae isolate 8, Sweden 2023): 4 ng/mL (≈ 7.21 nM) | MIC (clinical N. gonorrhoeae isolate 9, Sweden 2023): 4 ng/mL (≈ 7.21 nM) | MIC (clinical N. gonorrhoeae isolate 10, Sweden 2023): < 2 ng/mL | MIC (clinical N. gonorrhoeae isolate 11, Sweden 2023): 64 ng/mL (≈ 115 nM) | MIC (clinical N. gonorrhoeae isolate 12, Sweden 2023): 8 ng/mL (≈ 14.4 nM) | MIC (clinical N. gonorrhoeae isolate 13, Sweden 2023): < 2 ng/mL | MIC (clinical N. gonorrhoeae isolate 14, Sweden 2023): 4 ng/mL (≈ 7.21 nM) | MIC (clinical N. gonorrhoeae isolate 15, Sweden 2023): 4 ng/mL (≈ 7.21 nM) | MIC (clinical N. gonorrhoeae isolate 16, Sweden 2023): 32 ng/mL (≈ 57.7 nM) | MIC (clinical N. gonorrhoeae isolate 17, Sweden 2023): 4 ng/mL (≈ 7.21 nM) | MIC (clinical N. gonorrhoeae isolate 18, Sweden 2023): 4 ng/mL (≈ 7.21 nM) | MIC (clinical N. gonorrhoeae isolate 19, Sweden 2023): 16 ng/mL (≈ 28.9 nM) | MIC (clinical N. gonorrhoeae isolate 20, Sweden 2023): 2 ng/mL (≈ 3.61 nM) | MIC (clinical N. gonorrhoeae isolate 21, Sweden 2023): 2 ng/mL (≈ 3.61 nM) | MIC (clinical N. gonorrhoeae isolate 22, Sweden 2023): 2 ng/mL (≈ 3.61 nM) | MIC (clinical N. gonorrhoeae isolate 23, Sweden 2023): < 2 ng/mL | MIC (clinical N. gonorrhoeae isolate 24, Sweden 2023): 2 ng/mL (≈ 3.61 nM) | MIC (clinical N. gonorrhoeae isolate 25, Sweden 2023): 4 ng/mL (≈ 7.21 nM) | MIC (clinical N. gonorrhoeae isolate 26, Sweden 2023): 4 ng/mL (≈ 7.21 nM) | MIC (clinical N. gonorrhoeae isolate 27, Sweden 2023): 4 ng/mL (≈ 7.21 nM) | MIC (clinical N. gonorrhoeae isolate 28, Sweden 2023): 8 ng/mL (≈ 14.4 nM) | MIC (clinical N. gonorrhoeae isolate 29, Sweden 2023): 4 ng/mL (≈ 7.21 nM) | MIC (clinical N. gonorrhoeae isolate 30, Sweden 2023): < 2 ng/mL | MIC (clinical N. gonorrhoeae isolate 31, Sweden 2023): 4 ng/mL (≈ 7.21 nM) | MIC (clinical N. gonorrhoeae isolate 32, Sweden 2023): 2 ng/mL (≈ 3.61 nM) | MIC (clinical N. gonorrhoeae isolate 33, Sweden 2023): 2 ng/mL (≈ 3.61 nM) | MIC (clinical N. gonorrhoeae isolate 34, Sweden 2023): 4 ng/mL (≈ 7.21 nM) | MIC (clinical N. gonorrhoeae isolate 35, Sweden 2023): 64 ng/mL (≈ 115 nM) | MIC (clinical N. gonorrhoeae isolate 36, Sweden 2023): 8 ng/mL (≈ 14.4 nM) | MIC (clinical N. gonorrhoeae isolate 37, Sweden 2023): 16 ng/mL (≈ 28.9 nM) | MIC (clinical N. gonorrhoeae isolate 38, Sweden 2023): 4 ng/mL (≈ 7.21 nM) | MIC (clinical N. gonorrhoeae isolate 39, Sweden 2023): 4 ng/mL (≈ 7.21 nM) | MIC (clinical N. gonorrhoeae isolate 40, Sweden 2023): 8 ng/mL (≈ 14.4 nM) | MIC (clinical N. gonorrhoeae isolate 41, Sweden 2023): 32 ng/mL (≈ 57.7 nM) | MIC (clinical N. gonorrhoeae isolate 42, Sweden 2023): < 2 ng/mL | MIC (clinical N. gonorrhoeae isolate 43, Sweden 2023): 4 ng/mL (≈ 7.21 nM) | MIC (clinical N. gonorrhoeae isolate 44, Sweden 2023): 64 ng/mL (≈ 115 nM) | MIC (clinical N. gonorrhoeae isolate 45, Sweden 2023): 2 ng/mL (≈ 3.61 nM) | MIC (clinical N. gonorrhoeae isolate 46, Sweden 2023): 16 ng/mL (≈ 28.9 nM) | MIC (clinical N. gonorrhoeae isolate 47, Sweden 2023): 8 ng/mL (≈ 14.4 nM) | MIC (clinical N. gonorrhoeae isolate 48, Sweden 2023): 4 ng/mL (≈ 7.21 nM) | MIC (clinical N. gonorrhoeae isolate 49, Sweden 2023): 4 ng/mL (≈ 7.21 nM) | MIC (clinical N. gonorrhoeae isolate 50, Sweden 2023): 4 ng/mL (≈ 7.21 nM) | MIC (clinical N. gonorrhoeae isolate 51, Sweden 2023): 2 ng/mL (≈ 3.61 nM) | MIC (clinical N. gonorrhoeae isolate 52, Sweden 2023): 2 ng/mL (≈ 3.61 nM) | MIC (clinical N. gonorrhoeae isolate 53, Sweden 2023): 2 ng/mL (≈ 3.61 nM) | MIC (clinical N. gonorrhoeae isolate 54, Sweden 2023): 4 ng/mL (≈ 7.21 nM) | MIC (clinical N. gonorrhoeae isolate 55, Sweden 2023): 4 ng/mL (≈ 7.21 nM) | MIC (clinical N. gonorrhoeae isolate 56, Sweden 2023): 32 ng/mL (≈ 57.7 nM) | MIC (clinical N. gonorrhoeae isolate 57, Sweden 2023): 16 ng/mL (≈ 28.9 nM) | MIC (clinical N. gonorrhoeae isolate 58, Sweden 2023): 2 ng/mL (≈ 3.61 nM) | MIC (clinical N. gonorrhoeae isolate 59, Sweden 2023): 16 ng/mL (≈ 28.9 nM) | MIC (clinical N. gonorrhoeae isolate 60, Sweden 2023): 2 ng/mL (≈ 3.61 nM) | MIC (clinical N. gonorrhoeae isolate 61, Sweden 2023): < 2 ng/mL | MIC (clinical N. gonorrhoeae isolate 62, Sweden 2023): < 2 ng/mL | MIC (clinical N. gonorrhoeae isolate 63, Sweden 2023): < 2 ng/mL | MIC (clinical N. gonorrhoeae isolate 64, Sweden 2023): 16 ng/mL (≈ 28.9 nM) | MIC (clinical N. gonorrhoeae isolate 65, Sweden 2023): < 2 ng/mL | MIC (clinical N. gonorrhoeae isolate 66, Sweden 2023): 32 ng/mL (≈ 57.7 nM) | MIC (clinical N. gonorrhoeae isolate 67, Sweden 2023): 16 ng/mL (≈ 28.9 nM) | MIC (clinical N. gonorrhoeae isolate 68, Sweden 2023): 4 ng/mL (≈ 7.21 nM) | MIC (clinical N. gonorrhoeae isolate 69, Sweden 2023): 4 ng/mL (≈ 7.21 nM) | MIC (clinical N. gonorrhoeae isolate 70, Sweden 2023): < 2 ng/mL | MIC (clinical N. gonorrhoeae isolate 71, Sweden 2023): 32 ng/mL (≈ 57.7 nM) | MIC (clinical N. gonorrhoeae isolate 72, Sweden 2023): 32 ng/mL (≈ 57.7 nM) | MIC (clinical N. gonorrhoeae isolate 73, Sweden 2023): 16 ng/mL (≈ 28.9 nM) | MIC (clinical N. gonorrhoeae isolate 74, Sweden 2023): 32 ng/mL (≈ 57.7 nM) | MIC (clinical N. gonorrhoeae isolate 75, Sweden 2023): 32 ng/mL (≈ 57.7 nM) | MIC (clinical N. gonorrhoeae isolate 76, Sweden 2023): 4 ng/mL (≈ 7.21 nM) | MIC (clinical N. gonorrhoeae isolate 77, Sweden 2023): 2 ng/mL (≈ 3.61 nM) | MIC (clinical N. gonorrhoeae isolate 78, Sweden 2023): 16 ng/mL (≈ 28.9 nM) | MIC (clinical N. gonorrhoeae isolate 79, Sweden 2023): < 2 ng/mL | MIC (clinical N. gonorrhoeae isolate 80, Sweden 2023): 8 ng/mL (≈ 14.4 nM) | MIC (clinical N. gonorrhoeae isolate 81, Sweden 2023): 4 ng/mL (≈ 7.21 nM) | MIC (clinical N. gonorrhoeae isolate 82, Sweden 2023): 16 ng/mL (≈ 28.9 nM) | MIC (clinical N. gonorrhoeae isolate 83, Sweden 2023): 4 ng/mL (≈ 7.21 nM) | MIC (clinical N. gonorrhoeae isolate 84, Sweden 2023): 64 ng/mL (≈ 115 nM) | MIC (clinical N. gonorrhoeae isolate 85, Sweden 2023): 4 ng/mL (≈ 7.21 nM) | MIC (clinical N. gonorrhoeae isolate 86, Sweden 2023): 8 ng/mL (≈ 14.4 nM) | MIC (clinical N. gonorrhoeae isolate 87, Sweden 2023): 2 ng/mL (≈ 3.61 nM) | MIC (clinical N. gonorrhoeae isolate 88, Sweden 2023): 64 ng/mL (≈ 115 nM) | MIC (clinical N. gonorrhoeae isolate 89, Sweden 2023): 4 ng/mL (≈ 7.21 nM) | MIC (clinical N. gonorrhoeae isolate 90, Sweden 2023): 2 ng/mL (≈ 3.61 nM) | MIC (clinical N. gonorrhoeae isolate 91, Sweden 2023): 4 ng/mL (≈ 7.21 nM) | MIC (clinical N. gonorrhoeae isolate 92, Sweden 2023): 4 ng/mL (≈ 7.21 nM) | MIC (clinical N. gonorrhoeae isolate 93, Sweden 2023): 4 ng/mL (≈ 7.21 nM) | MIC (clinical N. gonorrhoeae isolate 94, Sweden 2023): 2 ng/mL (≈ 3.61 nM) | MIC (clinical N. gonorrhoeae isolate 95, Sweden 2023): < 2 ng/mL | MIC (clinical N. gonorrhoeae isolate 96, Sweden 2023): 2 ng/mL (≈ 3.61 nM) | MIC (clinical N. gonorrhoeae isolate 97, Sweden 2023): < 2 ng/mL | MIC (clinical N. gonorrhoeae isolate 98, Sweden 2023): 2 ng/mL (≈ 3.61 nM) | MIC (clinical N. gonorrhoeae isolate 99, Sweden 2023): 4 ng/mL (≈ 7.21 nM) | MIC (clinical N. gonorrhoeae isolate 100, Sweden 2023): 4 ng/mL (≈ 7.21 nM)
